Results as given in US11767322B2 (BRISTOL-MYERS SQUIBB COMPANY, priority 2020, dated 2023).
Where two headings read alike, the source gives them in different places.

What was measured:
[1] = target: T1, His-GST-TVMV-hRIPK1(1-324) (Homo sapiens, UniProt Q13546); assay: biochemical; format: binding; settings: read-out: RIPK1 IC50
T1 construct: The coding region of human RIPK1(1-324) flanked by NdeI site at 5′ end; made in house; host or cells: Spodoptera frugiperda Sf9 insect cells (baculovirus, Bac-to-Bac)
T1 sequence (Q13546 1-324): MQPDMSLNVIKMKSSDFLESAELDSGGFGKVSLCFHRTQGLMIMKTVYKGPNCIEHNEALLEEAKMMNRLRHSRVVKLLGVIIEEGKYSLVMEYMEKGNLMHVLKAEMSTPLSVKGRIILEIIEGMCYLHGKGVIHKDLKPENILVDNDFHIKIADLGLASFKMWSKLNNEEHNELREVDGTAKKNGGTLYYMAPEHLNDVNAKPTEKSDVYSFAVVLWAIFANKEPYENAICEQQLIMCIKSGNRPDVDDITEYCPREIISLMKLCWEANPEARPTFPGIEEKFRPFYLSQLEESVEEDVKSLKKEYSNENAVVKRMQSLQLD

[2] = tested on: MLKL phosphorylation in HT29-L23 human colorectal adenocarcinoma cells; assay: MLKL phosphorylation high-content assay; format: cell-based
[3] = HTRF probe displacement, 1 h at rt
[4] = Homo sapiens, 6 h, read-out: pMLKL IC50, HT29-L23 cells, necroptosis induced with TNFα, SMAC mimetic and Z-VAD, 6 h, maximal inhibition defined by Nec1s
[5] = read-out: pMLKL IC50, HT29-L23 cells, necroptosis induced with TNFα, SMAC mimetic and Z-VAD, 6 h, maximal inhibition defined by Nec1s
[6] = Homo sapiens, 6 h, HT29-L23 cells, necroptosis induced with TNFα, SMAC mimetic and Z-VAD, 6 h, maximal inhibition defined by Nec1s, read-out: pMLKL IC50

Structure (SMILES)	IC50 [1, 3] [nM]	IC50 [2, 6] [nM]	other results
Cc1ccc(-c2ccn3nc(N)nc3c2)c(F)c1C(=O)NCCC(C)(O)c1ccc(Cl)cc1 (racemic) [Example 17, 3-(2-amino-[1,2,4]triazolo[1,5-a]pyridin-7-yl)-N-(3-(4-chlorophenyl)-3-hydroxybutyl)-2-fluoro-6-methylbenzamide]	1.9		IC50 [2, 4]: 2.5 nM
Cc1ccc(-c2ccn3nc(N)nc3c2)c(F)c1C(=O)NCC(F)(F)C(C)(O)c1ccc(F)cc1 (racemic) [Example 18, 3-(2-amino-[1,2,4]triazolo[1,5-a]pyridin-7-yl)-N-(2,2-difluoro-3-(4-fluorophenyl)-3-hydroxybutyl)-2-fluoro-6-methylbenzamide]	8.9		
Cc1ccc(-c2ccn3nc(N)nc3c2)c(F)c1C(=O)NCC(F)(F)C(OP(=O)(O)O)c1ccc(F)cc1 (racemic) [Example 161, 3-(3-(2-amino-[1,2,4]triazolo[1,5-a]pyridin-7-yl)-2-fluoro-6-methylbenzamido)-2,2-difluoro-1-(4-fluorophenyl)propyl dihydrogen phosphate, racemate]	> 15000		IC50 [2, 4]: 135 nM
Cc1ccc(-c2ccn3nc(N)nc3c2)c(F)c1C(=O)NCC(F)(F)[C@@H](O)c1ccc(F)cc1 (single isomer, unassigned) [Example 30]	4.5		IC50 [2, 4]: 0.5 nM
Cc1ccc(-c2ccn3nc(N)nc3c2)c(F)c1C(=O)NCCC(O)c1cccc(Cl)c1 (single isomer, unassigned) [Example 44, 3-(2-amino-[1,2,4]triazolo[1,5-a]pyridin-7-yl)-N-(3-(3-chlorophenyl)-3-hydroxypropyl)-2-fluoro-6-methylbenzamide]	1.3		IC50 [2, 5]: 2.5 nM
Cc1ccc(-c2ccn3nc(N)nc3c2)c(F)c1C(=O)NCCC(O)c1cccc(Cl)c1 (single isomer, unassigned) [Example 45, 3-(2-amino-[1,2,4]triazolo[1,5-a]pyridin-7-yl)-N-(3-(3-chlorophenyl)-3-hydroxypropyl)-2-fluoro-6-methylbenzamide]	3		IC50 [2, 5]: 7.4 nM
Cc1ccc(-c2ccn3nc(N)nc3c2)c(F)c1C(=O)NCCC(O)c1cccc(F)c1 (single isomer, unassigned) [Example 64, 3-(2-amino-[1,2,4]triazolo[1,5-a]pyridin-7-yl)-2-fluoro-N-(3-(3-fluorophenyl)-3-hydroxypropyl)-6-methylbenzamide]	12		IC50 [2, 5]: 8 nM
[2H]C([2H])([2H])c1cccc(C(O)C(F)(F)CNC(=O)c2c(C([2H])([2H])[2H])ccc(-c3ccn4nc(N)nc4c3)c2F)c1F (single isomer, unassigned) [Example 206, 3-(2-amino-[1,2,4]triazolo[1,5-a]pyridin-7-yl)-N-(2,2-difluoro-3-(2-fluoro-3-(methyl-d3)phenyl)-3-hydroxypropyl)-2-fluoro-6-(methyl-d3)benzamide]	7.7		
Cc1ccc(-c2ccn3nc(N)nc3c2)c(F)c1C(=O)NCCC(O)c1ccc(Cl)c(Cl)c1 (centres unmarked) [Example 32, 3-(2-amino-[1,2,4]triazolo[1,5-a]pyridin-7-yl)-N-(3-(3,4-dichlorophenyl)-3-hydroxypropyl)-2-fluoro-6-methylbenzamide]	2.2		
CC(O)(c1ccc(F)cc1)C(F)(F)CNC(=O)c1c(Cl)ccc(-c2ccn3nc(N)nc3c2)c1F (centres unmarked) [Example 87, 3-(2-amino-[1,2,4]triazolo[1,5-a]pyridin-7-yl)-6-chloro-N-(2,2-difluoro-3-(4-fluorophenyl)-3-hydroxybutyl)-2-fluorobenzamide]	8.6		
COc1ncc(-c2ccn3nc(N)nc3c2)cc1C(=O)NCC[C@H](O)c1ccc(Cl)cc1 [Example 157]			IC50 ([1]; Table 23, representative compounds from WO2018/148626): 59 nM
Cc1ccc(C(O)C(F)(F)CNC(=O)c2c(Cl)ccc(-c3ccn4nc(N)nc4c3)c2F)cc1 (centres unmarked) [Example 172, 3-(2-amino-[1,2,4]triazolo[1,5-a]pyridin-7-yl)-6-chloro-N-(2,2-difluoro-3-hydroxy-3-(p-tolyl)propyl)-2-fluorobenzamide]	1.3		
C[C@](O)(c1ccc(F)cc1)[C@@H](F)CNC(=O)c1c(Cl)ccc(-c2ccn3nc(N)nc3c2)c1F [Example 209, 3-(2-amino-[1,2,4]triazolo[1,5-a]pyridin-7-yl)-6-chloro-2-fluoro-N-((2S,3S)-2-fluoro-3-(4-fluorophenyl)-3-hydroxybutyl)benzamide]		80	
C[C@@](O)(c1ccc(F)cc1)[C@H](F)CNC(=O)c1c(Cl)ccc(-c2ccn3nc(N)nc3c2)c1F [Example 210, 3-(2-amino-[1,2,4]triazolo[1,5-a]pyridin-7-yl)-6-chloro-2-fluoro-N-((2R,3R)-2-fluoro-3-(4-fluorophenyl)-3-hydroxybutyl)benzamide]		2.5	
C[C@@](O)(c1ccc(F)cc1)[C@@H](F)CNC(=O)c1c(Cl)ccc(-c2ccn3nc(N)nc3c2)c1F [Example 211, 3-(2-amino-[1,2,4]triazolo[1,5-a]pyridin-7-yl)-6-chloro-2-fluoro-N-((2S,3R)-2-fluoro-3-(4-fluorophenyl)-3-hydroxybutyl)benzamide]		45	
C[C@](O)(c1ccc(F)cc1)[C@H](F)CNC(=O)c1c(Cl)ccc(-c2ccn3nc(N)nc3c2)c1F [Example 212, 3-(2-amino-[1,2,4]triazolo[1,5-a]pyridin-7-yl)-6-chloro-2-fluoro-N-((2R,3S)-2-fluoro-3-(4-fluorophenyl)-3-hydroxybutyl)benzamide]		0.8	
[2H]C([2H])([2H])c1ccc(-c2ccn3nc(N)nc3c2)c(F)c1C(=O)NC[C@H](F)[C@@](C)(O)c1ccc(F)cc1 [Example 213, 3-(2-amino-[1,2,4]triazolo[1,5-a]pyridin-7-yl)-2-fluoro-N-((2S,3S)-2-fluoro-3-(4-flurophenyl)-3-hydroxybutyl)-6-(methyl-d3)benzamide]		13	
[2H]C([2H])([2H])c1ccc(-c2ccn3nc(N)nc3c2)c(F)c1C(=O)NC[C@@H](F)[C@](C)(O)c1ccc(F)cc1 [Example 214, 3-(2-amino-[1,2,4]triazolo[1,5-a]pyridin-7-yl)-2-fluoro-N-((2R,3R)-2-fluoro-3-(4-fluorophenyl)-3-hydroxybutyl)-6-(methyl-d3)benzamide]		0.9	
Nc1nc2cc(-c3ccc(Cl)c(C(=O)NCC(F)(F)C(O)C4CCC(F)(F)CC4)c3F)ccn2n1 (centres unmarked) [Example 256, 3-(2-amino-[1,2,4]triazolo[1,5-a]pyridin-7-yl)-6-chloro-N-(3-(4,4-difluorocyclohexyl)-2,2-difluoro-3-hydroxypropyl)-2-fluorobenzamide]	3.2		
Cc1ccc(-c2ccn3nc(N)nc3c2)c(F)c1C(=O)NCC(C)(O)C(=O)c1ccc(F)cc1 (centres unmarked) [Example 279, 3-(2-amino-[1,2,4]triazolo[1,5-a]pyridin-7-yl)-2-fluoro-N-(3-(4-fluorophenyl)-2-hydroxy-2-methyl-3-oxopropyl)-6-methylbenzamide]		8.3	IC50 ([2]; Homo sapiens, Table 22, compounds of the present invention, read-out: pMLKL IC50): 8.3 nM
Nc1nc2cc(-c3ccc(F)c(C(=O)NCC(F)(F)[C@@H](F)c4ccc(F)cc4)c3F)ccn2n1 [Example 285, (S)-3-(2-amino-[1,2,4]triazolo[1,5-a]pyridin-7-yl)-2,6-difluoro-N-(2,2,3-trifluoro-3-(4-fluorophenyl)propyl)benzamide]		0.8	
Nc1nc2cc(-c3ccc(C(F)(F)F)c(C(=O)NCC(F)(F)[C@@H](F)c4ccc(F)cc4)c3F)ccn2n1 [Example 286, (S)-3-(2-amino-[1,2,4]triazolo[1,5-a]pyridin-7-yl)-2-fluoro-N-(2,2,3-trifluoro-3-(4-fluorophenyl)propyl)-6-(trifluoromethyl)benzamide]		1	
Nc1nc2cc(-c3ccc(F)c(C(=O)NCC(F)(F)[C@H](F)c4ccc(F)cc4)c3F)ccn2n1 [Example 287, (R)-3-(2-amino-[1,2,4]triazolo[1,5-a]pyridin-7-yl)-2,6-difluoro-N-(2,2,3-trifluoro-3-(4-fluorophenyl)propyl)benzamide]		0.8	
Nc1nc2cc(-c3ccc(Cl)c(C(=O)NCC(F)(F)[C@H](F)c4ccc(F)cc4)c3F)ccn2n1 [Example 288, (R)-3-(2-amino-[1,2,4]triazolo[1,5-a]pyridin-7-yl)-6-chloro-2-fluoro-N-(2,2,3-trifluoro-3-(4-fluorophenyl)propyl)benzamide]		1	
Nc1nc2cc(-c3ccc(C(F)(F)F)c(C(=O)NCC(F)(F)[C@H](F)c4ccc(F)cc4)c3F)ccn2n1 [Example 289, (R)-3-(2-amino-[1,2,4]triazolo[1,5-a]pyridin-7-yl)-2-fluoro-N-(2,2,3-trifluoro-3-(4-fluorophenyl)propyl)-6-(trifluoromethyl)benzamide]		1.7	
CC(CCNC(=O)c1cccc(-c2ccn3nc(N)nc3c2)c1)c1ccccc1 (centres unmarked) [Example 316, 3-(2-amino-[1,2,4]triazolo[1,5-a]pyridin-7-yl)-N-(3-phenylbutyl)benzamide]			IC50 [2, 4]: 25 nM; IC50 ([2]; Homo sapiens, read-out: pMLKL IC50, Table 22, compounds of the present invention): 25 nM
COc1c(-c2ccc(C)c(C(=O)NCC[C@H](O)c3ccc(Cl)cc3)c2F)ccn2nc(N)nc12 [compound 133]	3.8		
